In one series the test system is CYP2B. The series is described as follows: CYP2B enzyme induction in rat hepatocytes (7-pentoxyresorufin O-dealkylation). Format: in vitro ADME. The settings on record: rat hepatocytes, 1, 10, 50 μM, 2 days. The procedure: (§1) Enzyme induction was evaluated as follows: Hepatocytes isolated from male SD rats were maintained in culture for 1 day before treatment with the test compound or P-450 inducers. The cells were treated with the test compound (1, 10, 50 μM), β-naphthoflavone (10 μM, CYP1A inducer), phenobarbital (50 μM, CYP2B inducer), dexamethasone (10 μM, CYP3A inducer), or vehicle (0.1% DMSO final volume; used as negative control) for 2 days.
(§2) Induction of CYP1A, CYP2B, and CYP3A enzymes was determined based on measurements of 7-ethoxyresorufin O-dealkylation, 7-pentoxyresorufin O-dealkylation, and testosterone 6β-hydroxylation, respectively. Assays were started by the addition of Krebs-Henseleit buffer containing 8 μM 7-ethoxyresorufin, 10 μM 7-pentoxyresorufin, or 250 μM testosterone at a volume of 100 μL per well. After incubation at 37°C for 30 min, aliquots were removed and analyzed by fluorometry (an excitation wavelength of 538 nm and an emission wavelength of 590 nm) or LC/MS/MS to determine the quantities of metabolites formed. Any test compound causing a dose-dependent change equal to or greater than 10% of the positive control (see formula below) was considered an enzyme inducer.
(§3) % positive control=(activity of test - compound treated cells - activity of negative control)/(activity of positive control - activity of negative control)×100

A further series deals with Human DPP-8 (Homo sapiens, UniProt Q6V1X1). Nature of the series: In vitro assay for inhibition of DPP-8.
A further series concerns the target Human DPP-9 (Homo sapiens, UniProt Q86TI2). Nature of the series: In vitro assay for inhibition of DPP-9.
Another series addresses Human recombinant DPP-IV (Homo sapiens, UniProt P27487). The series is described as follows: In vitro assay for DPP-IV inhibition (H-Gly-Pro-AMC fluorescence).
Another series deals with CYP1A. The series is described as follows: CYP1A enzyme induction in rat hepatocytes (7-ethoxyresorufin O-dealkylation). The settings on record: rat hepatocytes, 1, 10, 50 μM, 2 days. Format: in vitro ADME. How it is done:
as §1, §2, §3

Series [1] is described as follows: Metabolic stability in rat liver microsomes. The format is in vitro ADME. The settings on record: 5 μM. The procedure: (§4) The incubation mixture containing 0.25 mg of rat or human liver microsomes was preincubated with an NADPH-generating system for 5 min at 37°C. The reaction was started by the addition of 5 μL of a DMSO solution containing the test compound (5 μM). At t = 0 and at two additional time points between 0 and 30 min, aliquots (100 μL) were removed and added to termination mixtures (CH3CN). Proteins were sedimented by centrifugation and an aliquot of the supernatant was analyzed by LC/MS/MS.
(§5) In determinations of the in vitrot1/2, the analyte/ISTD peak area ratio was converted to percentage of drug remaining by assigning a value of 100% to the peak area ratio at t = 0. The slope of the regression line fitted to the log (percentage remaining) versus incubation time relationship (-k) was used in the conversion of raw data to the in vitrot1/2 value. In vitro CLint was calculated using the following formula.
(§6) CLint=0.693/Invitro t1/2×mL incubation/mg microsomes×45 mg microsomes/mg liver×[…] (b.w.)

The nature of series [2]: Metabolic stability in human liver microsomes. The format is in vitro ADME. The settings on record: read-out: CL'int Human (converted). How it is done: as §4, §5, §6
In general terms: Microsomes from liver hold many membrane-bound enzymes, among them those of drug oxidation.

A further series relates to CYP3A. The series is described as follows: CYP3A enzyme induction in rat hepatocytes (testosterone 6β-hydroxylation). The format is in vitro ADME. The settings on record: rat hepatocytes, 1, 10, 50 μM, 2 days. How it is done: as §1, §2, §3

Sequence of Human DPP-9 (Q86TI2 whole entry): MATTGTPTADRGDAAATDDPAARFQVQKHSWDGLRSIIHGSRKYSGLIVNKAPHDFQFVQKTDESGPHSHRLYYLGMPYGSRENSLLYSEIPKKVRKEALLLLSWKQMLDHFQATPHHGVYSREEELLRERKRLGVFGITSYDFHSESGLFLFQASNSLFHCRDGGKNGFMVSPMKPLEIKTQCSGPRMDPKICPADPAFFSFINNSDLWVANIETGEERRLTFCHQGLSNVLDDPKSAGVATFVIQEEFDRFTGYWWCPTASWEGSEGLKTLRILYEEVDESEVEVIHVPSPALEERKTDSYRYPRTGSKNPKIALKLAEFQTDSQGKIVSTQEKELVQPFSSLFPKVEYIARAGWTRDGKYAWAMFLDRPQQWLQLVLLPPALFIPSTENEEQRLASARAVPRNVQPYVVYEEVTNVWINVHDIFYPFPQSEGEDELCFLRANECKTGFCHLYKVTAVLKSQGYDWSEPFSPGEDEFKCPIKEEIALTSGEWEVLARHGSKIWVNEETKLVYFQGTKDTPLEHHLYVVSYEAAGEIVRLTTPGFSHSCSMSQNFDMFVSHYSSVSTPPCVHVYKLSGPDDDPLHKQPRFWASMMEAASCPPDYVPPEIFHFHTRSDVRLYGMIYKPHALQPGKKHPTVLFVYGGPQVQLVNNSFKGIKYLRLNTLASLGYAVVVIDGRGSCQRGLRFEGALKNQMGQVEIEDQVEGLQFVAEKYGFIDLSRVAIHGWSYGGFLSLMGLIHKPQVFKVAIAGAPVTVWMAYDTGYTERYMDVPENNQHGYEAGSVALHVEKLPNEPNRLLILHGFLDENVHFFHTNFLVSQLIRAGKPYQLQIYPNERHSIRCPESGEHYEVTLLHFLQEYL
Sequence of Human DPP-8 (Q6V1X1 whole entry): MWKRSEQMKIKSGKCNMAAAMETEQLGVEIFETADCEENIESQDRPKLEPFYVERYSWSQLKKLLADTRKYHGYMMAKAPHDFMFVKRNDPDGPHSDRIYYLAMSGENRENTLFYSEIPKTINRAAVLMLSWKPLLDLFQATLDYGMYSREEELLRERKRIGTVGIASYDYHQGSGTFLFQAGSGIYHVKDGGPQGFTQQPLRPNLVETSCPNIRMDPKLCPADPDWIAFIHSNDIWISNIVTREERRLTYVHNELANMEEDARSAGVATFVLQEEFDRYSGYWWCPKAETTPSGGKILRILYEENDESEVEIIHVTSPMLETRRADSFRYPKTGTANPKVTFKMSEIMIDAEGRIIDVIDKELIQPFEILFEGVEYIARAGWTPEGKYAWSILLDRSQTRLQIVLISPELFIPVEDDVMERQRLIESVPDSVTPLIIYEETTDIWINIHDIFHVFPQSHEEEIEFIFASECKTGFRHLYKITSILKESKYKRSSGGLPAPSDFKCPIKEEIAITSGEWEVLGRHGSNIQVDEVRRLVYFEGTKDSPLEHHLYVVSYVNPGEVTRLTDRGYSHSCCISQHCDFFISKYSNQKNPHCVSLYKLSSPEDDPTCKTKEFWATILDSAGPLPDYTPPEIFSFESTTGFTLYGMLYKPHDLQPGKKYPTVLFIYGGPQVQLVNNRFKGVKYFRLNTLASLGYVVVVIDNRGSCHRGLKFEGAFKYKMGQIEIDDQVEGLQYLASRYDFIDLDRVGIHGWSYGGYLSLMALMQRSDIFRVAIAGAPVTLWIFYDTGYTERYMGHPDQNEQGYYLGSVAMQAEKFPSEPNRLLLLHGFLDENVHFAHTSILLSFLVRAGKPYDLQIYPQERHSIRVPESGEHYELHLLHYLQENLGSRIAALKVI
Sequence of Human recombinant DPP-IV (P27487 whole entry): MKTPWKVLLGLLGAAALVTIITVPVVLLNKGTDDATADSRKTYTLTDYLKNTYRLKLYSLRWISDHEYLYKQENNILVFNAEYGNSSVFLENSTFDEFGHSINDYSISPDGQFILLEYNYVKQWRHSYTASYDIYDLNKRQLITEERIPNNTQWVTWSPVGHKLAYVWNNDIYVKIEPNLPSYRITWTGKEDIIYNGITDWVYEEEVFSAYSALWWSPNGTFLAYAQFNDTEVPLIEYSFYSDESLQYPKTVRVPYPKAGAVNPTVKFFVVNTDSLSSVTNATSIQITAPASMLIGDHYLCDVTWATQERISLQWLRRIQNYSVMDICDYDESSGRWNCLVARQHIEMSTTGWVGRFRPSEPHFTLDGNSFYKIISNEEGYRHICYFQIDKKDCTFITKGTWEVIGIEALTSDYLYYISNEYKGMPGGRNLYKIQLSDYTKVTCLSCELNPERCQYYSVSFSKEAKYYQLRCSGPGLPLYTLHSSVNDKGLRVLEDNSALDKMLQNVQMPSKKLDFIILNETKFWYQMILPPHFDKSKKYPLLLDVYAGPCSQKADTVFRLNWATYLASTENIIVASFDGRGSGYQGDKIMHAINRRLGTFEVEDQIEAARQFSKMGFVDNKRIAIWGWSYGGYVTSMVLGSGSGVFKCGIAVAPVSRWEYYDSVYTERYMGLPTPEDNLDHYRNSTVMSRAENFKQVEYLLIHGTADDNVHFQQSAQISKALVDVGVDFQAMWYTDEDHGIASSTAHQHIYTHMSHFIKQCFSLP
Method for Human DPP-8: (§7) Thus, isoindolines were synthesized as shown in Figure 1 and evaluated in vitro for their ability to inhibit human recombinant DPP-IV and were also screened for their selectivity over DPP-8/9 by a fluorescence assay using glycyl-proline 7-amino-4-methylcoumarin (H-Gly-Pro-AMC).
(§8) Human DPP-8 and DPP-9 were expressed in baculovirus-infected Sf9 insect cells and purified using His-tagged protein purification resins. Inhibition of DPP-8 and -9 activities was determined as described above. 10 μL of appropriately diluted aqueous solutions of the test compounds was added to 96-well microtiter plates, followed by the addition of 50 μL of 1.0 mM H-Gly-Pro-AMC in buffer solution (50 mM HEPES, 0.1 mg/mL BSA, pH 8.0). The reaction was initiated by the addition of 40 μL of the enzyme solution diluted in the assay buffer.
Method for Human DPP-9: as §7, §8
Method for Human recombinant DPP-IV: Inhibition of DPP-IV activity was determined by measuring the rate of hydrolysis of a surrogate substrate, H-Gly-Pro-7-amino-4-methylcoumarin (H-Gly-Pro-AMC). Human recombinant DPP-IV was purchased from R&D Systems, Minneapolis, MN. 10 μL of appropriately diluted solutions of the test compounds in water was added to 96-well microtiter plates, followed by the addition of 40 μL of DPP-IV diluted in assay buffer (25 mM HEPES, 140 mM NaC1, 0.1 mg/mL BSA, pH 7.8). After a 30-min preincubation at room temperature, the reaction was initiated by the addition of 50 μL of the assay buffer containing 0.2 mM H-Gly-Pro-AMC.

Usually IC50 stands for the point on the concentration scale where inhibition reaches its midpoint. Consider `Cc1cccc2c1CN(C(=O)CC(C)(C)NCC(=O)N1CCC[C@H]1C#N)C2` [Compound 4h, (S)-1-(2-(2-Methyl-4-(4-methylisoindolin-2-yl)-4-oxobutan-2-ylamino)acetyl)pyrrolidine-2-carbonitrile], for which, in the series with CYP2B, the “Enzyme induction (rat) CYP2B” value was “+ (Any test compound causing a dose-dependent change equal to or greater than 10% of the positive control (see formula below) was considered an enzyme inducer)”. The IC50 was > 100 µM on Human DPP-8, > 100 µM on Human DPP-9 and 0.004 µM on Human recombinant DPP-IV.
Take `CC(C)(CC(=O)N1Cc2cc(Cl)c(Cl)cc2C1)NCC(=O)N1CCC[C@H]1C#N` [Compound 4j, (S)-1-(2-(4-(5,6-Dichloroisoindolin-2-yl)-2-methyl-4-oxobutan-2-ylamino)acetyl)pyrrolidine-2-carbonitrile]: the “Enzyme induction (rat) CYP1A” value with CYP1A is “+ (Any test compound causing a dose-dependent change equal to or greater than 10% of the positive control (see formula below) was considered an enzyme inducer)”. Also, the “Enzyme induction (rat) CYP2B” value with CYP2B is “+ (Any test compound causing a dose-dependent change equal to or greater than 10% of the positive control (see formula below) was considered an enzyme inducer)”. Further, the IC50 at Human DPP-8 is > 100 µM; against Human DPP-9 it was 74 µM; at Human recombinant DPP-IV it was 0.022 µM.
In the case of `CC(C)(CC(=O)N1Cc2c(Cl)ccc(Cl)c2C1)NCC(=O)N1CCC[C@H]1C#N` [Compound 4i, (S)-1-(2-(4-(4,7-Dichloroisoindolin-2-yl)-2-methyl-4-oxobutan-2-ylamino)acetyl)pyrrolidine-2-carbonitrile], the “Enzyme induction (rat) CYP1A” value with CYP1A is “+ (Any test compound causing a dose-dependent change equal to or greater than 10% of the positive control (see formula below) was considered an enzyme inducer)”. The IC50 is > 100 µM on Human DPP-8, > 100 µM at Human DPP-9 and 0.0026 µM on Human recombinant DPP-IV.
`CC(C)(CC(=O)N1Cc2ccccc2C1)NCC(=O)N1CCC[C@H]1C#N` [Compound 4a, (S)-1-(2-(4-(Isoindolin-2-yl)-2-methyl-4-oxobutan-2-ylamino)acetyl)pyrrolidine-2-carbonitrile]: the “CL'int Rat” value in series [1] is 21.7 mL/min/kg. The CLint scaled at 5 μM in series [2] was 3.33 mL/min/kg. Further, the “Enzyme induction (rat) CYP1A” value in the series on CYP1A is given as “+ (Any test compound causing a dose-dependent change equal to or greater than 10% of the positive control (see formula below) was considered an enzyme inducer)”. In addition, the “Enzyme induction (rat) CYP2B” value with CYP2B was “+ (Any test compound causing a dose-dependent change equal to or greater than 10% of the positive control (see formula below) was considered an enzyme inducer)”. Further, the “Enzyme induction (rat) CYP3A” value with CYP3A is recorded as “+ (Any test compound causing a dose-dependent change equal to or greater than 10% of the positive control (see formula below) was considered an enzyme inducer)”. For the same molecule, the 50% inhibitory concentration (IC50) against Human DPP-9 is > 100 µM.
With `CC(C)(CC(=O)N1Cc2cccc(F)c2C1)NCC(=O)N1CCC[C@H]1C#N` [Compound 4g, (S)-1-(2-(4-(4-Fluoroisoindolin-2-yl)-2-methyl-4-oxobutan-2-ylamino)acetyl)pyrrolidine-2-carbonitrile], the “Enzyme induction (rat) CYP2B” value in the series with CYP2B was “+ (Any test compound causing a dose-dependent change equal to or greater than 10% of the positive control (see formula below) was considered an enzyme inducer)”. Moreover, the IC50 was > 100 µM at Human DPP-8, > 100 µM against Human DPP-9 and 0.0026 µM on Human recombinant DPP-IV.
As to `CC(C)(CC(=O)N1Cc2ccc(Br)cc2C1)NCC(=O)N1CCC[C@H]1C#N` [Compound 4d, (S)-1-(2-(4-(5-Bromoisoindolin-2-yl)-2-methyl-4-oxobutan-2-ylamino)acetyl)pyrrolidine-2-carbonitrile], the “Enzyme induction (rat) CYP2B” value in the series with CYP2B is listed as “+ (Any test compound causing a dose-dependent change equal to or greater than 10% of the positive control (see formula below) was considered an enzyme inducer)”. For the same molecule, the figures for the IC50 on Human DPP-8, at Human DPP-9 and on Human recombinant DPP-IV were 36 µM, > 100 µM and 0.003 µM, respectively.
The corresponding values for `COc1cc(C)cc2c1CN(C(=O)CC(C)(C)NCC(=O)N1CCC[C@H]1C#N)C2` [Compound 4k, (S)-1-(2-(4-(4-Methoxy-6-methylisoindolin-2-yl)-2-methyl-4-oxobutan-2-ylamino)acetyl)pyrrolidine-2-carbonitrile] are “+ (Any test compound causing a dose-dependent change equal to or greater than 10% of the positive control (see formula below) was considered an enzyme inducer)”, > 100 µM, > 100 µM and 0.016 µM.
`CC(C)(CC(=O)N1Cc2ccc(C(F)(F)F)cc2C1)NCC(=O)N1CCC[C@H]1C#N` [Compound 4f, (S)-1-(2-(2-Methyl-4-oxo-4-(5-(trifluoromethyl)isoindolin-2-yl)butan-2-ylamino)acetyl)pyrrolidine-2-carbonitrile]: in the series on CYP1A, the “Enzyme induction (rat) CYP1A” value is “+ (Any test compound causing a dose-dependent change equal to or greater than 10% of the positive control (see formula below) was considered an enzyme inducer)”. Moreover, the “Enzyme induction (rat) CYP2B” value with CYP2B is listed as “+ (Any test compound causing a dose-dependent change equal to or greater than 10% of the positive control (see formula below) was considered an enzyme inducer)”. Moreover, the IC50 is > 100 µM against Human DPP-8, > 100 µM at Human DPP-9 and 0.0054 µM at Human recombinant DPP-IV.
For `CC(C)(CC(=O)N1Cc2ccc(F)cc2C1)NCC(=O)N1CCC[C@H]1C#N` [Compound 4c, (S)-1-(2-(4-(5-Fluoroisoindolin-2-yl)-2-methyl-4-oxobutan-2-ylamino)acetyl)pyrrolidine-2-carbonitrile], the “CL'int Rat” value in series [1] was determined as 43.3 mL/min/kg. In series [2], the CLint scaled at 5 μM is 80 mL/min/kg. In addition, the “Enzyme induction (rat) CYP2B” value in the series with CYP2B is “+ (Any test compound causing a dose-dependent change equal to or greater than 10% of the positive control (see formula below) was considered an enzyme inducer)”. The results for the IC50 at Human DPP-8, at Human DPP-9 and at Human recombinant DPP-IV were > 100 µM, > 100 µM and 0.0019 µM, respectively.
For the molecule `CC(C)(CC(=O)N1Cc2ccc(Cl)cc2C1)NCC(=O)N1CCC[C@H]1C#N` [Compound 4e, (S)-1-(2-(4-(5-Chloroisoindolin-2-yl)-2-methyl-4-oxobutan-2-ylamino)acetyl)pyrrolidine-2-carbonitrile], the “Enzyme induction (rat) CYP2B” value with CYP2B is recorded as “+ (Any test compound causing a dose-dependent change equal to or greater than 10% of the positive control (see formula below) was considered an enzyme inducer)”. Besides, the concentration for half-maximal inhibition (IC50) against Human DPP-8 is 44 µM; against Human DPP-9, > 100 µM; on Human recombinant DPP-IV it was 0.0048 µM.
